Experimental data reported in ChEMBL document CHEMBL1127728, “Docking analysis of a series of benzylamino acetylcholinesterase inhibitors with a phthalimide, benzoyl, or indanone moiety” (J Med Chem, 1994).

What follows are compounds tested against T1, Acetylcholinesterase (Rattus norvegicus, UniProt P37136) (assay: Inhibition concentration against rat acetylcholinesterase).
T1 sequence (P37136 whole entry): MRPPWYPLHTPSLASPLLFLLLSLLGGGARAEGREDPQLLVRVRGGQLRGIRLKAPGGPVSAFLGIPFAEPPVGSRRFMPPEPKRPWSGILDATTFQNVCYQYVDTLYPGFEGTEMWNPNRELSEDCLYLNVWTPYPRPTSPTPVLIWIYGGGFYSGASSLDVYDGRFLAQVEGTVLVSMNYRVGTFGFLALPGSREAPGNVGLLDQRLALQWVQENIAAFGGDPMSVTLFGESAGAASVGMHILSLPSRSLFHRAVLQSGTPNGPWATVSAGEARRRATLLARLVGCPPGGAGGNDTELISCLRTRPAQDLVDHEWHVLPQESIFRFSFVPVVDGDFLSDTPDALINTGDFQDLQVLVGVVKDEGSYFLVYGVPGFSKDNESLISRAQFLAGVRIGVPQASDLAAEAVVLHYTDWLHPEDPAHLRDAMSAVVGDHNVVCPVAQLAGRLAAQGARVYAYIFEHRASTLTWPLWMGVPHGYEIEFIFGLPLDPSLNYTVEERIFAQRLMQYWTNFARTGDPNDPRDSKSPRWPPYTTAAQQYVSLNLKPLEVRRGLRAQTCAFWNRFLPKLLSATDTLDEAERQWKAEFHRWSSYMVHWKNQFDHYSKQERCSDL
With `CCN(CCCCCN1C(=O)c2ccc([N+](=O)[O-])cc2C1=O)CC1CCCCC1` the IC50 was 1090 nM.
`CCN(CCCCCN1C(=O)C2CCCCC2C1=O)Cc1ccccc1` (stereo unspecified) gave an IC50 of 18500 nM.
`CCN(CCCCCCN1C(=O)c2ccc([N+](=O)[O-])cc2C1=O)Cc1ccccc1` gave an IC50 of 607 nM.
`CCN(CCCCCC(=O)c1ccc(N2CCCC2)cc1)Cc1ccccc1` gave an IC50 of 305 nM.
`CCN(CCCCCN1C(=O)c2ccc([N+](=O)[O-])cc2C1=O)Cc1cccc(OC(=O)NC)c1` showed an IC50 of 0.38 nM.
Work on `COc1ccccc1CN1CCC(CCC(=O)c2ccc(N3CCCC3)cc2)CC1` yielded an IC50 of 1900 nM.
`CCN(CCCCCN1C(=O)c2ccc([N+](=O)[O-])cc2C1=O)CCCc1ccccc1` gave an IC50 of 161 nM.
Compound `CN(CCCCCN1C(=O)c2ccc([N+](=O)[O-])cc2C1=O)Cc1ccccc1` has an IC50 of 1360 nM.
Work on `CCN(CCCCCN(C(C)=O)C(=O)/C=C/c1ccc([N+](=O)[O-])cc1)Cc1ccccc1` yielded an IC50 of 539 nM.
In the case of `CCN(CCCCCN1C(=O)c2ccccc2C1=O)Cc1ccccc1`, the IC50 is reported as 3370 nM.
Work on `CCN(CCCCCNC(=O)/C=C/c1ccccc1)Cc1ccccc1` yielded an IC50 of 11800 nM.
Work on `CCCN(CCCCCN1C(=O)c2ccc([N+](=O)[O-])cc2C1=O)Cc1ccccc1` yielded an IC50 of 2650 nM.
`O=C1c2ccccc2C(=O)N1CCC1CCN(Cc2ccccc2)CC1` was tested, and the IC50 was 30 nM.
With `CCN(CCCCCN1C(=O)c2ccc([N+](=O)[O-])cc2C1=O)Cc1cccc(OC)c1OC` the IC50 was 274 nM.
`CN(CCCCCCN1C(=O)c2ccc([N+](=O)[O-])cc2C1=O)Cc1ccccc1` was tested, and the IC50 was 474 nM.
`O=C1c2ccc([N+](=O)[O-])cc2C(=O)N1C1CCN(Cc2ccccc2)CC1` gave an IC50 of 27000 nM.
For `CCN(CCCCCCCc1ccc(OC)c(OC)c1)Cc1ccccc1OC`, the IC50 was 1070 nM.
With `O=C1c2ccc([N+](=O)[O-])cc2C(=O)N1CCC1CCN(Cc2ccccc2)CC1` the IC50 was 13 nM.
`CCN(CCCCCN1C(=O)c2ccc([N+](=O)[O-])cc2C1=O)CCc1ccccc1` was tested, and the IC50 was 770 nM.
With `CCN(CCCCCC(=O)c1ccc(OC)c(OC)c1)Cc1ccccc1OC` the IC50 was 24 nM.
`COc1ccc(C(=O)CCC2CCN(Cc3ccccc3)CC2)cc1OC` was tested, and the IC50 was 52 nM.
For `CCN(CCCCCN(C(C)=O)C(=O)/C=C/c1ccccc1)Cc1ccccc1`, the IC50 was 2300 nM.
`CCN(CCCCCN1C(=O)c2ccc([N+](=O)[O-])cc2C1=O)Cc1ccccc1OC` showed an IC50 of 24 nM.
Work on `O=C1c2ccc([N+](=O)[O-])cc2C(=O)N1CC1CCN(Cc2ccccc2)CC1` yielded an IC50 of 3000 nM.
In the case of `CCN(CCCCCCC(=O)c1ccc(OC)c(OC)c1)Cc1ccccc1OC`, the IC50 is reported as 10 nM.
Compound `CCN(CCCCCCOc1ccc(OC)c(OC)c1)Cc1ccccc1OC` has an IC50 of 920 nM.
